Test results as given in US10280170B2, “Substituted 4,5,6,7-tetrahydro-pyrazolo[1,5-a]pyrazine derivatives and 5,6,7,8-tetrahydro-4H-pyrazolo[1,5-a][1,4]diazepine derivatives as Ros1 inhibitors” (Janssen Pharmaceutica NV, priority 2014, dated 2019).
Like-named read-outs stand apart in the source and are kept apart here.

Experiments:
[1] = biological target: T1, Ba/F3 cells containing Ros1 wild-type protein (Homo sapiens, UniProt P08922, cells depend on it, form not given); assay: Ba/F3-Ros1 cell proliferation assay, wild-type Ros1; assay type: cell-based, murine; settings: without IL-3
T1 construct: The background only speaks of 'a number of different unrelated proteins' and names SLC34A2-ROS1 for HCC78 cells
T1 sequence (P08922 whole entry, stated change not applied): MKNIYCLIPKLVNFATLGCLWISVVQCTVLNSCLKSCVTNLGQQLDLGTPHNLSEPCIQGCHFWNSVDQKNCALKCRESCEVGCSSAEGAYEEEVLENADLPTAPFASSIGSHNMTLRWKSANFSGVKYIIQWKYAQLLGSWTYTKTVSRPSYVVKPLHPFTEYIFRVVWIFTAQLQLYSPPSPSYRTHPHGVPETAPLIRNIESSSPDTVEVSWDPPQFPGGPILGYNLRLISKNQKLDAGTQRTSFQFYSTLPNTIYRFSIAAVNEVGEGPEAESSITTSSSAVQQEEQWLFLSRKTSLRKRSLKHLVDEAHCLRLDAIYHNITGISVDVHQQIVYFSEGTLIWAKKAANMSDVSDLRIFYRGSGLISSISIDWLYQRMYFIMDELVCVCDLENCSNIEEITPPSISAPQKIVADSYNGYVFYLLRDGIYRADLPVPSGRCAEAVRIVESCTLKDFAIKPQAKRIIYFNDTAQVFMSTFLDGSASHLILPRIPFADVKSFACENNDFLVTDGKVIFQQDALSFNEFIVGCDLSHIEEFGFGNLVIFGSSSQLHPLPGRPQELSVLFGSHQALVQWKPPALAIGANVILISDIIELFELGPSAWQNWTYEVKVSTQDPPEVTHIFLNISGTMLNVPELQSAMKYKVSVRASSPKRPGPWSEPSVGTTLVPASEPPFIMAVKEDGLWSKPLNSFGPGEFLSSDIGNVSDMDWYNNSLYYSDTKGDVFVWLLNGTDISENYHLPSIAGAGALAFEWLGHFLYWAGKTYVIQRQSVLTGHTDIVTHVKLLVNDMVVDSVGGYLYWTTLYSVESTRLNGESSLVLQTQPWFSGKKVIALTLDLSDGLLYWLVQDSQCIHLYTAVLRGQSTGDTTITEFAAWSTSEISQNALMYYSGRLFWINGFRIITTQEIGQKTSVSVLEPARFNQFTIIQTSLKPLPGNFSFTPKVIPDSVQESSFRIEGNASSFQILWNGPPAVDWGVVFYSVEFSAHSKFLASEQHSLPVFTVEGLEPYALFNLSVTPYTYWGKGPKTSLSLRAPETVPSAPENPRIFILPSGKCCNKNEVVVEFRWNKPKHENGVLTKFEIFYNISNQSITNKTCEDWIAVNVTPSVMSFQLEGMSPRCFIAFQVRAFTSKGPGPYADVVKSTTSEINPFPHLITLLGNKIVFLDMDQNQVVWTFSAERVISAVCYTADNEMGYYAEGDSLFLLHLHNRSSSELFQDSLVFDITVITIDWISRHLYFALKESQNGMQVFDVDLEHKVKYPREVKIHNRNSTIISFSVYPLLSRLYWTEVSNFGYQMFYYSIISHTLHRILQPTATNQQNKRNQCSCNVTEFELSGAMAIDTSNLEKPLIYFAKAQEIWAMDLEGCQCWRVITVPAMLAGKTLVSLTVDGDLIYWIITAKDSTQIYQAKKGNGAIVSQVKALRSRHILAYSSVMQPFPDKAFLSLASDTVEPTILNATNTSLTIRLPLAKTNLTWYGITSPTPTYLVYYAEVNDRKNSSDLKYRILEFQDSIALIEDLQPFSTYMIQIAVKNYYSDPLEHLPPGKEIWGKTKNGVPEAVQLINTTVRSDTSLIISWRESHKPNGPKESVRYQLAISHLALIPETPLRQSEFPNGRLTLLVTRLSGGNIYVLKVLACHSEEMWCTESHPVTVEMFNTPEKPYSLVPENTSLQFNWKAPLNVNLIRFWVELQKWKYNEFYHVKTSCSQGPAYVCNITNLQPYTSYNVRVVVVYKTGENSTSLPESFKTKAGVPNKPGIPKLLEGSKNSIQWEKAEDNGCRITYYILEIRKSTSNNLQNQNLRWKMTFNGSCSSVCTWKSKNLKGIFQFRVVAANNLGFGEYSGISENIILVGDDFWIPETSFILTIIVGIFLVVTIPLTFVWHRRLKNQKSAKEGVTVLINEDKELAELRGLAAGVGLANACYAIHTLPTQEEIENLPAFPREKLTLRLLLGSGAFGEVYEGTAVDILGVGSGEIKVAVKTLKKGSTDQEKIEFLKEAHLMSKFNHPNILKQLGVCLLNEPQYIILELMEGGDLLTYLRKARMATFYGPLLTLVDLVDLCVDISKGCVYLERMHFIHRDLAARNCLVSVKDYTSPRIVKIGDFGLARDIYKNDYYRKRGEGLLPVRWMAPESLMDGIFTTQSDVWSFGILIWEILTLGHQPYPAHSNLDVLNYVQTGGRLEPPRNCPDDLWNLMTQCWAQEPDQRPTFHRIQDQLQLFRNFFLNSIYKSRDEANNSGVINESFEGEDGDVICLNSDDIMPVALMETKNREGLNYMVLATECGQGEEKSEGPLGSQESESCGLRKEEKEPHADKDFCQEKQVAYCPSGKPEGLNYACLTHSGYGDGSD
Protocol: (§1) Ba/F3-Ros1 Cell Proliferation Assay
(§2) This assay was carried out with Ba/F3 cells containing three different versions of Ros1: the wild-type protein, protein with a mutation at the gatekeeper residue (L2026M), and protein with a mutation identified in a tumor from a patient that became resistant to crizotinib (Xalkori®) treatment (G2032R). Compounds were solubilized in 100% DMSO (dimethyl sulfoxide) and sprayed into polystyrene, tissue culture treated 384-well plates. A 50 μl volume of cell culture medium (phenol red free RPMI-1640, 10% FBS (fetal bovine serum), 2 mM L-Glutamine) containing 20000 Ba/F3-Ros1 cells was added to each well and the plates were placed in an incubator at 37° C. and 5% CO2. After 24 hours, 10 μl of Alamar Blue solution (0.5 mM K3Fe(CN)6, 0.5 mM K4Fe(CN)6, 0.15 mM Resazurin and 100 mM Phosphate Buffer) was added to the wells, incubated for 4 hours at 37° C. and 5% CO2 before RFU's (Relative Fluorescence Units) (ex. 540 nm., em. 590 nm.) were measured in a fluorescence plate reader.

[2] = biological target: Ba/F3 cells containing Ros1 with a mutation at the gatekeeper residue (L2026M) (Homo sapiens, UniProt P08922, L2026M, cells depend on it, form not given); assay: Ba/F3-Ros1 cell proliferation assay, L2026M gatekeeper mutant; assay type: cell-based, murine; settings: without IL-3
Chain of Ba/F3 cells containing Ros1 with a mutation at the gatekeeper residue (L2026M) (P08922 whole entry L2026M, form open): as the sequence (P08922 whole entry, stated change not applied) above, with L2026M counted along it
Protocol: as §1, §2

Ros1 enzyme = biological target: T2, Ros1 enzyme (Homo sapiens, UniProt P08922); assay: Ros1 enzymatic assay; assay type: biochemical; settings: Ros1 enzymatic assay; read-out: ROS1 pIC50 (converted)
T2 construct: 0.5 μg/ml Ros1 enzyme
T2 sequence (P08922 28-2347): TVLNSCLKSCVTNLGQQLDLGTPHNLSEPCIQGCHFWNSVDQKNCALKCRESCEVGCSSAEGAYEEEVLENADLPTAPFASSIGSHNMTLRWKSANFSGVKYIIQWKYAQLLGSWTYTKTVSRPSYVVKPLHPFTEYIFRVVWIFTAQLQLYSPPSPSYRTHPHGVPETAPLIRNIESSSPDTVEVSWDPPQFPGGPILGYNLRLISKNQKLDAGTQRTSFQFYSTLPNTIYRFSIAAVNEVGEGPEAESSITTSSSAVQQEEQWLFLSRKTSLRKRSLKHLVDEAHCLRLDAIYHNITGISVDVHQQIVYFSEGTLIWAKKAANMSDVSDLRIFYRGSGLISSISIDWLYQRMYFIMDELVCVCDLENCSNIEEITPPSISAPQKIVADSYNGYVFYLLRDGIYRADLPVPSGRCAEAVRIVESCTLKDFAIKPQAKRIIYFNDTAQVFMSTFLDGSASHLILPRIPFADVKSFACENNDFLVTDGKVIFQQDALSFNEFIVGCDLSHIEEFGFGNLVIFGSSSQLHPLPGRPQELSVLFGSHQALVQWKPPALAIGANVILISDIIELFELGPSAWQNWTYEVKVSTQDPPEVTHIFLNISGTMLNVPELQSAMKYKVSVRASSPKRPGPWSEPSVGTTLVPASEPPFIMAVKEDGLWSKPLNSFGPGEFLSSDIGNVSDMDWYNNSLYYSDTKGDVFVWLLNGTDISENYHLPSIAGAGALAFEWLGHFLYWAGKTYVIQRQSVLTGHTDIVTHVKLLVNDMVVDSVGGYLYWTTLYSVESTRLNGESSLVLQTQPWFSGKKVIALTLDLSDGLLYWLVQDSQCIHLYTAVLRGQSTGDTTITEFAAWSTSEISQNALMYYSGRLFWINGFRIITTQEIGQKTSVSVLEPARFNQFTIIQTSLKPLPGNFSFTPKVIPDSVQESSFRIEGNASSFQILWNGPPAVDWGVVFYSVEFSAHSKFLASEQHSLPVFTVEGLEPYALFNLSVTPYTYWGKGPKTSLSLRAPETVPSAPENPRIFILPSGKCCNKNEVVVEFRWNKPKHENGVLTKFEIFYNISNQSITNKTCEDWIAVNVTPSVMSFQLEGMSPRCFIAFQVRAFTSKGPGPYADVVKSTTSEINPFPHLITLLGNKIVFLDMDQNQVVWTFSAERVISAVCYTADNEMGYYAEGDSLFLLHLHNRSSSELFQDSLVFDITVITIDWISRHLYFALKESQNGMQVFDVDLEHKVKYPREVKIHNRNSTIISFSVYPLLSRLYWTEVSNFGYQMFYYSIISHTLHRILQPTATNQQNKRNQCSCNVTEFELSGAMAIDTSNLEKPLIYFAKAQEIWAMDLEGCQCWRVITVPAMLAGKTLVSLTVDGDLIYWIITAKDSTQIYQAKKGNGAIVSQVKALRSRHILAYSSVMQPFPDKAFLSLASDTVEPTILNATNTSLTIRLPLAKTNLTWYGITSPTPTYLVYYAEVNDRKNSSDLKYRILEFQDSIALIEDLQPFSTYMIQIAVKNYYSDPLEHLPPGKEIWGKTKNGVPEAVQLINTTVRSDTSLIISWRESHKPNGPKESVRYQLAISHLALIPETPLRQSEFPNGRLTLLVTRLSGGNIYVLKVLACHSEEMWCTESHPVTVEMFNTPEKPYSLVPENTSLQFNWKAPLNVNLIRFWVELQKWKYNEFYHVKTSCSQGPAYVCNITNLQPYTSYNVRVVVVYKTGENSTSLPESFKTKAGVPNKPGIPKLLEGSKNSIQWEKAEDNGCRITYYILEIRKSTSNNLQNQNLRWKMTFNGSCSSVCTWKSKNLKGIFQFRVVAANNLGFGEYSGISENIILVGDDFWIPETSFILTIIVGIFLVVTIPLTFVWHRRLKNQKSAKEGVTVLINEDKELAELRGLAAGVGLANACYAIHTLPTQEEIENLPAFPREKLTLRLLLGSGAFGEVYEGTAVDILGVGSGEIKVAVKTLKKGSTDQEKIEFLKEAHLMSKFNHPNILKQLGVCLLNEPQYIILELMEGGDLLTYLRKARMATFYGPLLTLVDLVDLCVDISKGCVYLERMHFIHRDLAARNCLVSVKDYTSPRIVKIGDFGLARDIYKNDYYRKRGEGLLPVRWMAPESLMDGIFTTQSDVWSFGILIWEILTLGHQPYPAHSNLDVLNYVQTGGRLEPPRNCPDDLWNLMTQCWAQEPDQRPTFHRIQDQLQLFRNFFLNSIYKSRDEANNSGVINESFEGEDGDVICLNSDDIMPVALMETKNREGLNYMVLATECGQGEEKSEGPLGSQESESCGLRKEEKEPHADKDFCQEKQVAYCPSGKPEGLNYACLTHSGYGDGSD
Protocol: Compounds were spotted onto white 384-well Proxiplate plus plates (Perkin Elmer) to which 5 μl of enzyme mix (0.5 μg/ml Ros1 enzyme, 50 mM Tris-HCl pH7.5, 1 mM EGTA, 10 mM MgCl2, 0.01% Tween-20) and 5 μl of substrate mix (6 μg/ml IRS-Tide [American Peptide Company], 20 μM ATP, 13.33 μCi/ml ATP (adenosine 5′-triphosphate) P^33, 50 mM Tris-HCl pH7.5, 1 mM EGTA (ethylene glycol-bis(2-aminoethylether)-N,N,N′,N′-tetraacetic acid), 10 mM MgCl2, 0.01% Tween-20) were added. After incubation for 120 minutes at room temperature, 10 μl of stop reaction buffer (5 mM EDTA, 50 μM ATP, 0.1% BSA (bovine serum albumin), 0.1% Triton X-100, 50 mM Tris-HCl pH7.5, 1 mM EGTA, 10 mM MgCl2, 0.01% Tween-20) containing 2 mg/ml streptavidin coupled polystyrene imaging beads (Amersham Biosciences) was added and incubated for 15 minutes at room temperature. Plates were centrifuged for 3 minutes at 1500 rpm and signals detected in a LEADseeker imaging system (GE).

[3] = tested on: Ba/F3 cells containing Ros1 wild-type protein + IL-3; assay: Ba/F3-Ros1 cell proliferation counter-screen, wild-type protein in the presence of 10 ng/ml murine IL-3; assay type: cell-based; settings: Mus musculus, BaF3, 24 h, read-out: BaF3-ROS1 + IL3 pIC50 (converted)
Protocol: as §2
As a counter-screen the same experiment was performed for the wild-type protein in the presence of 10 ng/ml murine IL-3.

[4] = counter-screen, wild-type, 10 ng/ml murine IL-3

Row | Compound | BaF3-ROS1-IL3 pIC50 [1] | melting point | Ba/F3 Ros1 L2026M (-IL-3) pIC50 [2] | IC50 (Ros1 enzyme) | CC50 [3, 4] | CC50 [3]
1 | CC(C)c1ccc(COc2ccc(-c3c(-c4ccncc4)nn4c3C(=O)N(CC(O)CO)CC4)cc2)c(F)c1F (stereo not shown) [Compound 101] | 6.7 | 192 °C | 6.4 | 398 nM | > 10 µM | 
2 | O=C1NCCn2nc(-c3ccncn3)c(-c3ccc(OCc4ccc(C5CC5)nc4)cc3)c21 [Compound 168] | 6.5 | 254 °C | 6.2 | 398 nM |  | > 10 µM
3 | CC(C)c1ccc(COc2ccc(-c3c(-c4ccncc4)nn4c3C(=O)N(CCO)CC4)c(F)c2)cc1CCO [Compound 205] | 7.8 | 151 °C | 7.5 | 7.94 nM |  | > 10 µM
4 | CC(C)c1ccc(COc2ccc(-c3c(-c4ccncc4)nn4c3CNC(=O)C4)cc2)cc1 [Compound 237] | 6.8 | 281 °C |  | 794 nM |  | > 10 µM
5 | CC(C)NC(=O)CN1CCn2nc(-c3ccncc3)c(-c3ccc(OCc4ccc(C(C)C)cc4)cc3)c2C1 [Compound 178] | 6.6 | 188 °C |  | 200 nM | > 10 µM | 
6 | COc1ncc(COc2ccc(-c3c(-c4ccncc4)nn4c3C(=O)NCC4)cc2)cn1 [Compound 229] | <5 | 248 °C |  | > 10000 nM | > 10 µM | 
7 | N#Cc1cccc(COc2ccc(-c3c(-c4ccncc4)nn4c3C(=O)NCC4)cc2)c1 [Compound 124] | 5.7 | 238 °C |  | 2000 nM |  | > 10 µM
8 | CC(C)c1ccc(COc2ccc(-c3c(-c4ccncc4)nn4c3C(=O)N(CCO)CC4)cc2)cc1CCO [Compound 83] | 7.6 | 176 °C | 7.2 | 20 nM |  | > 10 µM
9 | CC(CO)c1ccc(COc2ccc(-c3c(-c4ccncc4)nn4c3C(=O)NCC4)cc2)cc1 (stereo not shown) [Compound 127] | 6.6 | 259 °C |  | 398 nM |  | > 10 µM
10 | CC(C)Cc1ccc(COc2ccc(-c3c(-c4ccncc4)nn4c3C(=O)NCC4)cc2)cc1 [Compound 108] | 7.0 | 233 °C |  | 126 nM |  | > 10 µM
11 | CC(C)c1ccc(COc2ccc(-c3c(-c4ccncc4)nn4c3C(=O)N(CCC#N)CC4)cc2)cc1 [Compound 57] | 7.7 | 158 °C |  | 25.1 nM |  | > 10 µM
12 | O=C1c2c(-c3ccc(OCc4ccc(C5CC5)nc4)cc3)c(-c3ccncn3)nn2CCN1CCO [Compound 169] | 6.2 | 143 °C | 5.6 | 1000 nM |  | > 10 µM
13 | COc1ccc(COc2ccc(-c3c(-c4ccncn4)nn4c3C(=O)NCC4)cc2)cc1 [Compound 157] | 6.1 | 264 °C |  | 1000 nM |  | > 10 µM
14 | N#Cc1ccc(COc2ccc(-c3c(-c4ccncc4)nn4c3C(=O)NCC4)cc2)cc1Cl [Compound 141] | 6.4 | 257 °C |  | 631 nM |  | > 10 µM
15 | COc1cc(COc2ccc(-c3c(-c4ccncc4)nn4c3C(=O)NCC4)cc2)ccc1C(C)C [Compound 80] | 6.9 | 232 °C |  | 126 nM |  | > 10 µM
16 | CC(C)c1ccc(COc2ccc(-c3c(-c4ccncn4)nn4c3CNCC4)cc2)cc1 [Compound 219] | 6.0 | 150 °C |  | 1260 nM | > 10 µM | 
17 | CC(C)c1ccc(COc2ccc(-c3c(-c4ncnc5[nH]ccc45)nn4c3C(=O)NCC4)cc2)cc1 [Compound 222] | 7.0 | 238 °C |  | 200 nM |  | > 10 µM
18 | COCCOc1cc(COc2ccc(-c3c(-c4ccncc4)nn4c3C(=O)NCC4)cc2)ccc1C [Compound 104] | 6.1 | 190 °C |  | 1260 nM |  | > 10 µM
19 | CC(C)c1ccc(COc2ccc(-c3c(-c4cc[n+]([O-])cc4)nn4c3C(=O)NCC4)cc2)cc1 [Compound 170] | 5.2 | 227 °C |  | 6310 nM | > 10 µM | 
20 | CC(C)c1ccc(COc2ccc(-c3c(-c4ccncc4)nn4c3C(=O)N(CC(O)CO)CC4)cc2)c(F)c1F (stereo not shown) [Compound 102] | 6.7 | 191 °C | 6.4 | 794 nM |  | 
21 | CC(C)Oc1ccc(COc2ccc(-c3c(-c4ccncc4)nn4c3C(=O)NCC4)cc2)cc1 [Compound 114] | 6.4 | 252 °C |  | 501 nM |  | > 10 µM
22 | CC(C)(CO)c1ccc(COc2ccc(-c3c(-c4ccncc4)nn4c3C(=O)NCC4)cc2)cc1 [Compound 125] | 6.7 | 280 °C |  | 316 nM |  | > 10 µM
23 | COC(=O)c1cccc(COc2ccc(-c3c(-c4ccncc4)nn4c3C(=O)NCC4)cc2)c1 [Compound 131] | 6.2 | 222 °C |  | 631 nM |  | > 10 µM
24 | COC(=O)c1ccc(COc2ccc(-c3c(-c4ccncc4)nn4c3C(=O)NCC4)cc2)cc1 [Compound 9a] | <5 | 254 °C |  | 2510 nM | > 10 µM | 
25 | CC(C)c1ccc(COc2cc(F)c(-c3c(-c4ccncc4)nn4c3C(=O)NCC4)c(F)c2)cc1 [Compound 17] | 6.8 | 235 °C |  | 501 nM |  | > 10 µM
26 | O=C1NCCn2nc(-c3ccncc3)c(-c3ccc(OCc4ccc(OC(F)F)cc4)cc3)c21 [Compound 118] | 7.1 | 250 °C |  | 158 nM |  | > 10 µM
